Patent US11471462B2, “Compositions and methods for detecting and treating diabetes” (THE BROAD INSTITUTE, INC., priority 2016, dated 2022)

What follows are compounds tested on SLC16A11 (assay: SLC16A11 protein-protein interaction study (immunoprecipitation, quantitative mass spectrometry)). Settings: putative SLC16A11^REF interaction partners; immunoprecipitation from HEK293T cells vs empty vector control; Blandt-Altman.
Design: species or system human
From the text: Alternatively, these variants may result in reduced transport because they disrupt protein-protein interactions responsible for correct SLC16A11 function. To explore this possibility, SLC16A11 was immunoprecipitated from HEK293T cells expressing either REF or T2D risk SLC16A11-V5 or empty vector control and quantitative mass spectrometry was used to define the SLC16A11 interactome.
Another mechanism through which the variants could affect activity is through disruption of protein-protein interactions. To explore this possibility, quantitative mass spectrometry-based protein-protein interaction studies were performed to define the SLC16A11 interactome and evaluate if the T2D risk coding variants alter any interactions.
Beads were then washed once with lysis buffer and three times with wash buffer. After the last wash, residual wash buffer was removed, 10 μL fresh wash buffer was added, and beads were stored at −80° C. until analysis by the Proteomics Platform at the Broad Institute, as detailed in the “Proteomics Methods for SLC16A11 Protein Interaction Studies” below.
The beads from immunopurification were washed once with IP lysis buffer, then three times with PBS, the three different lysates of each replicate were resuspended in 90 uL digestion buffer (2M Urea, 50 mM Tris HCl), 2 ug of sequencing grade trypsin added, 1 hour shaking at 700 rpm. The supernatant was removed and placed in a fresh tube. The beads were then washed twice with 50 uL digestion buffer and combined with the supernatant. The combined supernatants were reduced (2 uL 500 mM DTT, 30 minutes, RT), alkylated (4 uL 500 mM IAA, 45 minutes, dark) and a longer overnight digestion performed: 2 ug (4 uL) trypsin, shake o/n, The samples were then quenched with 20 uL 10% FA and desalted on 10 mg SepPak columns.
Desalted peptides were labelled with iTRAQ reagents according to the manufacturer's instructions (AB Sciex, Foster City, Calif.). Peptides were dissolved in 30 μl of 0.5 M TEAB pH 8.5 solution and labeling reagent was added in 70 ul of ethanol. After 1 h incubation the reaction was stopped with 50 mM Tris/HCl pH 7.5. Differentially labelled peptides were mixed and subsequently desalted on 10 mg SepPak columns.
Reconstituted peptides were separated on an online nanoflow EASY-nLC 1000 UHPLC system (Thermo Fisher Scientific) and analyzed on a benchtop Orbitrap Q Exactive Plus mass spectrometer (Thermo Fisher Scientific). The peptide samples were injected onto a capillary column (Picofrit with 10 μm tip opening/75 μm diameter, New Objective, PF360-75-10-N-5) packed in-house with 20 cm C18 silica material (1.9 μm ReproSil-Pur C18-AQ medium, Dr. Maisch GmbH, r119.aq). The UHPLC setup was connected with a custom-fit microadapting tee (360 μm, IDEX Health & Science, UH-753), and capillary columns were heated to 50° C. in column heater sleeves (Phoenix-ST) to reduce backpressure during UHPLC separation. Injected peptides were separated at a flow rate of 200 nL/min with a linear 80 min gradient from 100% solvent A (3% acetonitrile, 0.1% formic acid) to 30% solvent B (90% acetonitrile, 0.1% formic acid), followed by a linear 6 min gradient from 30% solvent B to 90% solvent B. Each sample was run for 120 min, including sample loading and column equilibration times. The Q Exactive instrument was operated in the data-dependent mode acquiring HCD MS/MS scans (R=17,500) after each MS1 scan (R=70,000) on the 12 top most abundant ions using an MS1 ion target of 3×10^6 ions and an MS2 target of 5×10^4 ions. The maximum ion time utilized for the MS/MS scans was 120 ms; the HCD-normalized collision energy was set to 27; the dynamic exclusion time was set to 20 s, and the peptide match and isotope exclusion functions were enabled.
All mass spectra were processed using the Spectrum Mill software package v6.0 pre-release (Agilent Technologies) which includes modules developed by us for iTRAQ-based quantification. […]
In the case of ATP1B3, the “BA log fold change” value is reported as 1.18.
BAG6 was tested, and the “BA log fold change” value was 1.08.
With DNAJB4 the “BA log fold change” value was 1.08.
With EMB the “BA log fold change” value was 1.55.
For GCN1L1, the “BA log fold change” value was 1.01.
With KIAA0368 the “BA log fold change” value was 1.16.
PSMA1 was tested, and the “BA log fold change” value was 1.20.
With PSMC3 the “BA log fold change” value was 1.16.
For PSMD2, the “BA log fold change” value was 0.98.
With PSMD11 the “BA log fold change” value was 1.02.
In the case of PSMD14, the “BA log fold change” value is reported as 1.31.
For RNF5, the “BA log fold change” value was 1.42.
For SCFD1, the “BA log fold change” value was 1.08.
For TUBA1B, the “BA log fold change” value was 1.05.

These compounds were tested on SLC16A13 (assay: Metabolic effectors on SLC16A13 transcript levels in SNU761 cells). Settings: 24 hours, low and high concentrations.
Type: cell-based, human
Procedure: (§1) FIG. 22 provides bar graphs showing the effects of low and high concentrations of metabolic effectors (oleic acid (OA), insulin and glucagon) on expression levels of SLC16A11 and SLC16A13 transcripts in SNU761 cells cultured for 24 hours in the presence of low/high concentrations of OA (0.3 mM/1.5 mM); insulin (100 nM/500 nM); or glucagon (100 nM/500 nM). Relative transcipt levels of SLC16A11 and SLC16A13 are shown, with 2-FBS (2% Fetal Bovine Serum) used as control.
(§2) FIG. 23 provides bar graphs showing the effects of low and high concentrations of pyruvate or lactate on expression levels of SLC16A11 and SLC16A13 transcripts in SNU761 cells cultured for 24 hours in the presence of 2 mM pyruvate (low), 10 mM pyruvate (high), 20 mM lactate (low), or 100 mM lactate (high). Relative transcipt levels of SLC16A11 and SLC16A13 are shown, compared with transcript levels in cell cultured in increasing concentrations of glucose.
(§3) To assess whether metabolic effectors regulated SLC16A11 and SLC16A13 transcript levels, endogenous transcripts in SNU761 cells (derived from a human hepatocellular carcinoma) were examined following exposure of the cells to different metabolic perturbations. SNU761 cells were cultured in the presence of various metabolic effectors for 24 hours after which time cell lysates were collected and the relative endogenous expression levels of SLC16A11 and SLC16A13 transcripts were assessed. The metabolic effectors included in the cell cultures included oleic acid (OA) at a low concentration (0.3 mM) or a high concentration (1.5 mM); insulin at a low concentration (100 nM) or a high concentration (500 nM) and glucagon at a low concentration (100 nM) and a high concentration (500 nM). Cells cultured in 2-FBS were used as a control. […] (FIG. 22). Similarly, SNU761 cells were cultured in the presence or absence of low or high concentrations of pyruvate or lactate in the culture medium for 24 hours after which time cell lysates were analyzed. In the cultures, low (L) pyruvate concentration was 2 mM; high (H) pyruvate concentration was 10 mM, and low lactate concentration was 20 mM, while high lactate concentration was 100 mM. […] (FIG. 23).
In the case of `CCCCCCCC/C=C\CCCCCCCC(=O)O` [oleic acid], the SLC16A13 transcript levels is reported as “increase”.
glucagon: metabolic effector (hormone) was tested, and the SLC16A13 transcript levels was “alter”.
In the case of insulin: metabolic effector (hormone), the SLC16A13 transcript levels is reported as “alter”.

What follows are compounds tested on SLC16A11 (assay: Metabolic effectors on SLC16A11 transcript levels in SNU761 cells). Settings: 24 hours, low and high concentrations.
Type: cell-based, human
Procedure: as §1, §2, §3
With `CCCCCCCC/C=C\CCCCCCCC(=O)O` [oleic acid] the SLC16A11 transcript levels was “alter”.
For glucagon: metabolic effector (hormone), the SLC16A11 transcript levels was “alter”.
With insulin: metabolic effector (hormone) the SLC16A11 transcript levels was “alter”.

These compounds were tested on SLC16A11 (assay: CRISPR (SAM) transactivation assay, SLC16A11 expression in 293T cells). Settings: Cas9-based transactivators (SAM) targeted near variant.
Type: cell-based, human
From the text: These experiments are based upon Cas9 based transactivators (SAM or synergistic activation mediators) as described in Konermann et al (Nature 517: 583-588, 2015). Similar experiments based on other types of transactivators that are more finely tuned to distal activation such as those described in Hilton et al. (Nature 33:510-518, 2015) could also be envisioned. Cas9 was used to target transactivators to sites near individual variants in the credible set. Their ability to activate SLC16A11 gene expression was assessed (Table 10).
Cell lines derived from HEK293-T cells were established by lentivirus infection resulting in stable integration of two components of the SAM system namely dCas9-VP64 and MS2-p65-HSF1. The resulting stable cell lines were then plated into 96 well plates and left overnight. The next day, cells were transfected with the guide RNAs (pHKO23), the final component of the SAM system. After an additional 48 hours, cells were harvested for gene expression analyses.
With “rs312457 (guide 1 TGATGAAACCTGGCCGGGCA; guide 2 GTGAGCCACCGTGCCCGGCC; listed as DNA, chemistry not given here; listed as Homo sapiens)” the “Increases SLC16A11 transcript levels in transactivator assay” value (shortened to “Increases SLC16A11 transcript levels”) was “FALSE”.
In the case of “rs1698227 (guide 1 TGGTGCTAAGGGGCACACAC; guide 2 TGCTCATTTTCCTCTGCACT; listed as DNA, chemistry not given here; listed as Homo sapiens)”, the “Increases SLC16A11 transcript levels” value is reported as “FALSE”.
With “rs2292351 (guide 1 AGCCTCTGGCTGCTCGCCCG; guide 2 CACCCCGGGCGAGCAGCCAG; listed as DNA, chemistry not given here; listed as Homo sapiens)” the “Increases SLC16A11 transcript levels” value was “TRUE”.
In the case of “rs4630597 (guide 1 GGTGCCTCAGATACCTGGTT; guide 2 AACCAGGTATCTGAGGCACC; listed as DNA, chemistry not given here; listed as Homo sapiens)”, the “Increases SLC16A11 transcript levels” value is reported as “FALSE”.
In the case of “rs17203120 (guide 1 CTTATTTGATTTTATCTCAA; guide 2 TTATTTGATTTTATCTCAAA; listed as DNA, chemistry not given here; listed as Homo sapiens)”, the “Increases SLC16A11 transcript levels” value is reported as “FALSE”.
With “rs17203148 (guide 1 TCTGCCAATCTTGGCTCTGT; guide 2 GAAACCTACAGAGCCAAGAT; listed as DNA, chemistry not given here; listed as Homo sapiens)” the “Increases SLC16A11 transcript levels” value was “FALSE”.
For “rs58223766 (guide 1 TCAGGAGTTCGAGACCATCC; guide 2 GATCCACCCCCCCCCCCCCT; listed as DNA, chemistry not given here; listed as Homo sapiens)”, the “Increases SLC16A11 transcript levels” value was “FALSE”.
In the case of “rs73239895 (guide 1 ACTCCTGCCGGAGGTTCTCG; guide 2 AGGCCCCGAGAACCTCCGGC; listed as DNA, chemistry not given here; listed as Homo sapiens)”, the “Increases SLC16A11 transcript levels” value is reported as “FALSE”.
For “rs74577409 (guide 1 ACCTGCCGCCTGCTGCGCGC; guide 2 CCCTGCGCGCAGCAGGCGGC; listed as DNA, chemistry not given here; listed as Homo sapiens)”, the “Increases SLC16A11 transcript levels” value was “TRUE”.
“rs75075014 (guide 1 GGAAGTGGAGGAGAGTGTCC; guide 2 GGAGTCATGCCTGGAAGTGG; listed as DNA, chemistry not given here; listed as Homo sapiens)” was tested, and the “Increases SLC16A11 transcript levels” value was “FALSE”.
“rs77552976 (guide 1 GAAAGGGCTGCCGTGCTGTT; guide 2 CCTGGCTGGACCTAACAGCA; listed as DNA, chemistry not given here; listed as Homo sapiens)” was tested, and the “Increases SLC16A11 transcript levels” value was “FALSE”.
“rs78972129 (guide 1 GATGCTATGGTTGGCCACGC; guide 2 AGTACAGTACACAGCCTGCG; listed as DNA, chemistry not given here; listed as Homo sapiens)” was tested, and the “Increases SLC16A11 transcript levels” value was “FALSE”.
For “rs145952323 (guide 1 CAAAAATTAGCCGGGTGTGT; guide 2 CAGGCACACGCCAACACACC; listed as DNA, chemistry not given here; listed as Homo sapiens)”, the “Increases SLC16A11 transcript levels” value was “FALSE”.
In the case of “rs186568031 (guide 1 GATTTTCACTCTTGTTGCCC; guide 2 TTCACTCTTGTTGCCCAGGC; listed as DNA, chemistry not given here; listed as Homo sapiens)”, the “Increases SLC16A11 transcript levels” value is reported as “FALSE”.
